# Experimental data: publication PMC11002876, “KcsA-Kv1.x chimeras with complete ligand-binding sites provide improved predictivity for screening selective Kv1.x blockers” (The Journal of Biological Chemistry, 2024)
# Positions count from the first letter of the chain named.
# Experiments:
# [1] = system: human Kv1.1; settings: human Kv1.1 channel blocking, patch-clamp; read-out: IC50, Kv1.x blocking (Kv1.1); cited from earlier work
# [2] = system: human Kv1.3; settings: human Kv1.3 channel blocking, patch-clamp; read-out: IC50, Kv1.x blocking (Kv1.3); cited from earlier work
# Source text: Table 1 Summary of chimeric protein-binding prediction studies in the light of IC50 values | column: Kv1.x blocking / IC50 (nM) || Peptide toxins of venomous animal origin as lead molecules for optimization may offer an advantage over small molecules in terms of potentially greater affinity and specificity. These miniproteins are usually up to 50 amino acids in length and can adopt distinct conformation with secondary structural elements stabilized by several disulfide bonds ([9], [10], [11]). Due to their considerable surface area, miniproteins can form stable complexes with target proteins through extensive interaction surfaces ([12], [13]). The miniprotein Kv1.3 blocker drug candidate, Dalazatide—a synthetic derivative ... || Our initial investigation focused on assessing the relative binding affinities of various channel-blocking toxins to the T-only version of the KcsA-Kv1.3 chimera. Subsequently, we evaluated whether these affinities aligned with the toxins' blocking efficacy on native human Kv1.3 channels, as determined by patch-clamp assay.
# [3] = biological target: T1, KcsA-Kv1.2 T-only chimera (Streptomyces lividans, UniProt P0A334, R52A/G53D/A54E/P55R/G56E/A57S/L59F/I60P/T61S/Y62I/R64D); assay: Phage ELISA-binding assay, KcsA-Kv1.2 T-only; set-up: species or system human Kv1.2 turret in Streptomyces lividans KcsA; settings: toxin displayed on M13 phage, Fig. 7C
# T1 sequence (P0A334 1-160 R52A/G53D/A54E/P55R/G56E/A57S/L59F/I60P/T61S/Y62I/R64D): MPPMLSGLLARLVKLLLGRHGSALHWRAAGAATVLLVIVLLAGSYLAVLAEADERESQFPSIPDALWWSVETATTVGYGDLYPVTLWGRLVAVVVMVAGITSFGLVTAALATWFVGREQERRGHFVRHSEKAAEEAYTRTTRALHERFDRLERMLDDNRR
# Experimental: (§1) Phage display test solutions were prepared according to routine phage display protocols ([62]). Phosphorylated and annealed oligonucleotides encoding the peptide construct were ligated into linearized pAS62 phagemid vector (https://patents.google.com/patent/WO2022144560A1/en) at a vector/insert ratio of 1:3. The final phagemid construct harbored a signal sequence followed by the peptide of interest, a linker sequence ([…]), and the C-terminal part of the P3 coat protein (amino acids: 216-424 of NP_510891.1). Chemically competent XL1-Blue E. coli cells (2022249, Agilent) were transformed with the ligation product and then streaked onto ampicillin (100 μg/ml) containing LB/Amp plates and incubated for 16 h at 37 °C. A few clones were sequenced, and a single colony with confirmed target sequence was inoculated into 3 ml 2 YT medium supplemented with 100 μg/ml ampicillin and incubated at 37 °C until the culture reached midlog phase. The culture was infected with M13KO7 helper phage (N0315S, New England Biolabs) (phage/cell ratio 10:1) and was incubated for 30 min at 37 °C. The 3 ml culture was transferred into 200 ml 2YT medium, supplemented with 100 μg/ml ampicillin and 25 μg/ml kanamycin, and incubated overnight at 37 °C. The overnight cell culture (200 ml) was pelleted by centrifugation at 8000g for 10 min in 400 ml centrifuge tubes at 4 °C. […] The particle concentrations of phage solutions were determined using a NanoDrop One C (Thermo Fisher Scientific) spectrophotometer. The phage particle concentration was assessed according to the formula: (A268–A320) × 5 × 10^12 particles/ml ([62]). […]
# (§2) Phage stock solutions were diluted to working concentration with phage resuspension buffer supplemented with 2 mM DDM. […] Following blocking, the wells were washed 4× with washing buffer (300 μl TBS-Tween, 0.1% v/v) using a Wellwash Versa microplate washer (Thermo Fisher Scientific); then 50 μl phage solution (in TBS-BSA-Tween, 0.1% v/v, 2 mM DDM) at determined phage concentration was added to the wells and incubated for 1 h at room temperature on a horizontal shaker. […]
# [4] = biological target: T2, KcsA-Kv1.1 T-only chimera (Streptomyces lividans, UniProt P0A334, R52A/G53E/A54E/P55A/G56E/A57S/Q58H/L59F/I60S/T61S/Y62I/R64D); assay: Phage ELISA-binding assay, KcsA-Kv1.1 T-only; set-up: species or system human Kv1.1 turret in Streptomyces lividans KcsA; settings: toxin displayed on M13 phage; Fig. 8C
# T2 sequence (P0A334 1-160 R52A/G53E/A54E/P55A/G56E/A57S/Q58H/L59F/I60S/T61S/Y62I/R64D): T1 sequence (P0A334 1-160 R52A/G53D/A54E/P55R/G56E/A57S/L59F/I60P/T61S/Y62I/R64D) with D53E, R55A, Q58H, P60S
# Experimental: as §1, §2
compound,measurement,setting,value
"CC[C@H](C)[C@H](NC(=O)[C@H](CCC(=O)O)NC(=O)[C@@H](NC(=O)CN)C(C)C)C(=O)N[C@@H](CC(N)=O)C(=O)N[C@H](C(=O)N[C@@H](CCCCN)C(=O)N[C@H]1CSSC[C@@H]2NC(=O)[C@H](CCCCN)NC(=O)CNC(=O)[C@H](Cc3ccccc3)NC(=O)[C@H](CCCNC(=N)N)NC(=O)[C@H](CCSC)NC(=O)CNC(=O)[C@H](C)NC(=O)[C@H](CC(=O)O)NC(=O)[C@H](CCCCN)NC(=O)[C@@H]3CSSC[C@@H](C(=O)N[C@H](C(=O)N4CCC[C@H]4C(=O)N[C@@H](CCCCN)C(=O)O)[C@@H](C)O)NC(=O)[C@H](Cc4c[nH]cn4)NC(=O)[C@H](CSSC[C@H](NC(=O)[C@H](CCC(N)=O)NC(=O)[C@@H]4CCCN4C(=O)[C@H](CO)NC(=O)CNC(=O)[C@H](CO)NC1=O)C(=O)N[C@@H](CC(C)C)C(=O)N[C@@H](CCCCN)C(=O)N1CCC[C@H]1C(=O)N3)NC(=O)[C@H](CCCCN)NC(=O)[C@H](CCCNC(=N)N)NC(=O)[C@H](CC(N)=O)NC(=O)[C@H](CCSC)NC2=O)C(C)C [KTX1, Kaliotoxin-1]",IC50,[1],1.1 to 41 nM
same,IC50,[2],0.65 nM
same,"phage binding to KcsA-Kv1.2 T-only, in words",[3],inconsistent with their published channel blocking potencies
same,"phage binding to KcsA-Kv1.1 T-only, in words",[4],ShK > KTX1
